Calls of active or inactive are those of the source. The rule behind the calls is not given here.
Tests used:
Assay type in all cases: cell-based
[1] = target: T1, Exportin-1 (Homo sapiens, UniProt O14980); assay: Inhibition of CRM1-mediated hemagglutininin-tagged HIV1 Rev protein nuclear export in human HeLa cells assessed as nucleus localization after 12 hrs by indirect fluorescent antibody technique
[2] = target: T1, Exportin-1; assay: Inhibition of CRM1-mediated hemagglutininin-tagged HIV1 Rev protein nuclear export in human HeLa cells assessed as nuclear localization at 5 uM after 12 hrs by indirect fluorescent antibody technique
[3] = target: T1, Exportin-1; assay: Inhibition of CRM1-mediated hemagglutininin-tagged HIV1 Rev protein nuclear export in human HeLa cells assessed as nucleus localization at 25 uM after 12 hrs by indirect fluorescent antibody technique

T1 sequence (O14980 whole entry): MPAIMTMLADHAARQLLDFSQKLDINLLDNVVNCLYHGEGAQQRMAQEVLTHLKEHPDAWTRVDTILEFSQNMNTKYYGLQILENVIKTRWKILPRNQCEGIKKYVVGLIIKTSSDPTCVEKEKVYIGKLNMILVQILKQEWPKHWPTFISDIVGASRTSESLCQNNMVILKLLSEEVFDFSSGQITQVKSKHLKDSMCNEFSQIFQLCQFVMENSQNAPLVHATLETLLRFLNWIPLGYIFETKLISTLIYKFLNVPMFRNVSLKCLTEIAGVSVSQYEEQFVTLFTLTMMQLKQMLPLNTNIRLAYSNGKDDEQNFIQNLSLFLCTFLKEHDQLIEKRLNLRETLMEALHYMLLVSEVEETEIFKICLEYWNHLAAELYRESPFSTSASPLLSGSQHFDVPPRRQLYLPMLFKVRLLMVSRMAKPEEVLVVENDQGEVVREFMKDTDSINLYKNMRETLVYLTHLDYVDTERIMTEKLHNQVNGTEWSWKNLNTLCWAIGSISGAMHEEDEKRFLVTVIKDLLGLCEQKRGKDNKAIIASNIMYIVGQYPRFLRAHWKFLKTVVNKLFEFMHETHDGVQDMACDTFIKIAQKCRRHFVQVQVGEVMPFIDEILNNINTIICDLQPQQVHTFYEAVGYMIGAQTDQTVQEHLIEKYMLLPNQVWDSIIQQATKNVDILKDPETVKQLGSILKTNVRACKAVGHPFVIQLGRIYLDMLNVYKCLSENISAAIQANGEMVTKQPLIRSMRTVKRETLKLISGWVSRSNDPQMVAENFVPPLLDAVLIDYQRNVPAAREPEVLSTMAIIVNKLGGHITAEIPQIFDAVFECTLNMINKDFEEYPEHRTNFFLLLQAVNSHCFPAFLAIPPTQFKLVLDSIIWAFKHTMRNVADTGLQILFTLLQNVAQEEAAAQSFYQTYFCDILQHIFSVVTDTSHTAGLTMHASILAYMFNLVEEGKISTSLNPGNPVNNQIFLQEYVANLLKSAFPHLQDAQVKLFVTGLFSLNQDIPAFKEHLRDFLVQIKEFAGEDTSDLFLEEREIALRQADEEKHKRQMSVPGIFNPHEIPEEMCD

Structure (SMILES)	IC50 [1] [µM]	inhibition [2]	inhibition [3] [%]
O=c1ccc2ccccc2o1 [COUMARIN]	> 25		
COc1ccc2ccc(=O)oc2c1CC=C(C)C [OSTHOLE]	1.6	Active	
COc1ccc2ccc(=O)oc2c1 [HERNIARIN]	> 25		
COc1ccc2c(c1CC=C(C)C)OC(=O)CC2			2.6
CC(C)=CCc1cccc2ccc(=O)oc12	6.4		
